Assay results from patent publication US20060293294A1, “Method for treatment or prevention of androgen deficiency” (HORMOS MEDICAL CORPORATION, priority 2004, published 2006).

Tested on: healthy, elderly men
Assay: Phase I repeated dose study 101-50202: serum hormone concentrations before and during 28-day treatment
Type: in vivo, human
Details: for increase in the mean total testosterone compared to the baseline concentration: 300 mg dose
From the text: Fispemifene has been studied in two phase I studies in humans—in a single dose and a repeated dose study. Effect of fispemifene on hormone levels was one main focus of the repeated dose study. The phase I repeated dose study (number 101-50202) was a randomized, double-blind, placebo-controlled 28-day dose-escalation study performed in 32 healthy, elderly men, aged 50-68 years. The main objective of the study was to investigate the tolerability, safety and pharmacokinetics of fispemifene after repeated oral doses, but the study focused also on the effects of fispemifene on serum testosterone, estradiol, and other relevant hormones. The fispemifene doses 10, 30, 100 and 300 mg per day and placebo were administered once every morning as capsules containing 10 mg or 100 mg of fispemifene, or placebo. The dose was escalated to the next higher dose level, if the previous dose had been safe and well tolerated evaluated by the laboratory safety determinations and ultrasound of mammagy glands.
The variables for safety and tolerability were adverse events, vital signs, 12-lead ECG, clinical laboratory evaluations, physical examination, ultrasound examinations (mammary glands) and inhibin b. For pharmacokinetics, the concentrations of fispemifene and its metabolite(s) were to be evaluated. For pharmacodynamics, serum concentrations of FSH, LH, estradiol, testosterone, SHBG, prolactin, aldosterone, cortisol and TSH before and during treatment were measured and compared with the concentrations in the placebo-group.

## OCCOCCOc1ccc(/C(=C(/CCCl)c2ccccc2)c2ccccc2)cc1 [Fispemifene, (Z)-2-{2-[4-(4-Chloro-1,2-diphenylbut-1-enyl)phenoxy]ethoxy}ethanol]
10 mg per day oral, Baseline
  Serum total testosterone concentration, Mean: 19.33 nmol/L
10 mg per day oral, Day 8
  Serum total testosterone concentration, Mean: 19.83 nmol/L
10 mg per day oral, Day 15
  Serum total testosterone concentration, Mean: 20.50 nmol/L
10 mg per day oral, Day 22
  Serum total testosterone concentration, Mean: 22.00 nmol/L
10 mg per day oral, Day 28
  Serum total testosterone concentration, Mean: 17.40 nmol/L
30 mg per day oral, Baseline
  Serum total testosterone concentration, Mean: 15.00 nmol/L
30 mg per day oral, Day 8
  Serum total testosterone concentration, Mean: 14.40 nmol/L
30 mg per day oral, Day 15
  Serum total testosterone concentration, Mean: 15.00 nmol/L
30 mg per day oral, Day 22
  Serum total testosterone concentration, Mean: 15.80 nmol/L
30 mg per day oral, Day 28
  Serum total testosterone concentration, Mean: 14.80 nmol/L
100 mg dose, 28 days of treatment
  increase of the mean total testosterone: about 32%
100 mg or 300 mg, 28-day treatment
  subjects in whom an increase in testosterone serum concentration was seen: all the subjects
100 mg per day oral, Baseline
  Serum total testosterone concentration, Mean: 14.27 nmol/L
100 mg per day oral, Day 8
  Serum total testosterone concentration, Mean: 18.67 nmol/L
100 mg per day oral, Day 15
  Serum total testosterone concentration, Mean: 19.00 nmol/L
100 mg per day oral, Day 22
  Serum total testosterone concentration, Mean: 17.83 nmol/L
100 mg per day oral, Day 28
  Serum total testosterone concentration, Mean: 18.83 nmol/L
28 days of treatment
  increase in the mean total testosterone compared to the baseline concentration: 75%
28 days of treatment, listed as fispemifene
  increase in the mean total testosterone compared to the baseline concentration: about 75%
300 mg per day oral, Baseline
  Serum total testosterone concentration, Mean: 15.67 nmol/L
300 mg per day oral, Day 8
  Serum total testosterone concentration, Mean: 23.17 nmol/L
300 mg per day oral, Day 15
  Serum total testosterone concentration, Mean: 27.00 nmol/L
300 mg per day oral, Day 22
  Serum total testosterone concentration, Mean: 27.83 nmol/L
300 mg per day oral, Day 28
  Serum total testosterone concentration, Mean: 27.50 nmol/L
During the 28 days of treatment
  serum concentrations of testosterone, FSH, LH, and SHBG: increased
Highest dose (300 mg), six men
  men with serum testosterone level above the upper limit of normal range (33 nmol/L) during treatment: Two out of six men
Within 28 days from the start of the treatment
  change in the serum testosterone concentration: clinically and statistically significant and dose dependent increase
